Experiments:
[1] = system: HeLa; assay: Cytotoxicity against human HeLa cells assessed as reduction in cell viability measured after 24 hrs by MTT assay; assay type: functional, cell-based
[2] = system: MCF7; assay: Cytotoxicity against human MCF7 cells assessed as reduction in cell viability measured after 24 hrs by MTT assay; settings: MCF7, 24 h
[3] = system: HT-29; assay: Cytotoxicity against human HT-29 cells assessed as reduction in cell viability measured after 24 hrs by MTT assay; assay type: functional, cell-based; settings: HT-29, 24 h
[4] = system: A549; assay: Cytotoxicity against human A549 cells assessed as reduction in cell viability measured after 24 hrs by MTT assay; settings: A549, 24 h
[5] = system: MDA-MB-231; assay: Cytotoxicity against human MDA-MB-231 cells assessed as reduction in cell viability measured after 24 hrs by MTT assay; assay type: functional, cell-based; settings: MDA-MB-231, 24 h
[6] = Cytotoxicity against human MCF7/TxR cells assessed as reduction in cell viability measured after 24 hrs by MTT assay; assay type: functional, cell-based
[7] = Cmax in Sprague-Dawley rat at 10 mg/kg, iv by HPLC-MS/MS analysis; assay type: ADME, organism-based; design: dose 10 mg/kg, route iv; settings: in vivo
[8] = Resistance index, ratio of IC50 for human A549/TxR cells to IC50 for human A549 cells; assay type: functional
[9] = Clearance in Sprague-Dawley rat at 10 mg/kg, iv by HPLC-MS/MS analysis; assay type: ADME, organism-based; settings: in vivo
[10] = Tmax in Sprague-Dawley rat at 10 mg/kg, iv by HPLC-MS/MS analysis; assay type: ADME, organism-based; settings: in vivo
[11] = Half-life in Sprague-Dawley rat at 10 mg/kg, iv by HPLC-MS/MS analysis; assay type: ADME, organism-based; settings: in vivo
[12] = AUC in Sprague-Dawley rat at 10 mg/kg, iv by HPLC-MS/MS analysis; assay type: ADME, organism-based; design: dose 10 mg/kg, route iv; settings: in vivo
[13] = Resistance index, ratio of IC50 for human MCF7/TxR cells to IC50 for human MCF7 cells; assay type: functional
[14] = Cytotoxicity against human A549/TxR cells assessed as reduction in cell viability measured after 24 hrs by MTT assay; assay type: functional, cell-based

SMILES | IC50 [1] [µM] | IC50 [2] [µM] | IC50 [3] [µM] | IC50 [4] [µM] | IC50 [5] [µM] | IC50 [6] [µM] | Cmax [7] [ng/mL] | Ratio IC50 [8] | CL [9] [mL/min/kg] | Tmax [10] [min] | t1/2 [11] [min] | AUC [12] [µg/L.hr] | Ratio IC50 [13] | IC50 [14] [µM]
COc1cc(Nc2cc3c(cc2C(=O)O)OCCO3)cc(OC)c1OC | 2.91 | 6.76 | 2.16 | 11.5 | 6.79 |  |  |  |  |  |  |  |  | 
COc1ccc(Nc2cc3c(cc2C(=O)NN)OCCO3)cc1 | > 20 | > 20 | > 20 | > 20 | > 20 |  |  |  |  |  |  |  |  | 
COc1cc([C@@H]2c3cc4c(cc3[C@H](O)[C@H]3COC(=O)[C@H]23)OCO4)cc(OC)c1OC [PODOFILOX] | 0.044 | 0.039 | 0.023 | 0.059 | 0.017 | 0.043 | 3530 | 1.2 | 56.5 | 6 | 12.6 | 2950 | 1.1 | 0.073
COc1ccc(Nc2cc3c(cc2C(N)=O)OCCO3)cc1OC | 5.29 | 13.1 | 0.85 | 0.91 | > 20 |  |  |  |  |  |  |  |  | 
COc1cc(C(=O)Nc2cc3c(cc2C(=O)O)OCCO3)cc(OC)c1OC | > 20 | > 20 | > 20 | > 20 | > 20 |  |  |  |  |  |  |  |  | 
COc1c(F)cc(C(=O)Nc2cc3c(cc2C(=O)NN)OCCO3)cc1F | > 20 | > 20 | > 20 | > 20 | > 20 |  |  |  |  |  |  |  |  | 
COC(=O)c1cc2c(cc1Nc1ccc3c(c1)OCO3)OCCO2 | 5.55 | 11.2 | 4.61 | > 20 | 3.13 |  |  |  |  |  |  |  |  | 
COC(=O)c1cc2c(cc1Nc1cc(Br)c(OC)c(Br)c1)OCO2 | 3.4 | 6.46 | 2.02 | 2.64 | 11.7 |  |  |  |  |  |  |  |  | 
NNC(=O)c1cc2c(cc1Nc1ccc3c(c1)OCO3)OCCO2 | 3.54 | > 20 | 1.02 | > 20 | > 20 |  |  |  |  |  |  |  |  | 
COC(=O)c1cc2c(cc1NC(=O)c1cc(OC)c(OC)c(OC)c1)OCCO2 | > 20 | > 20 | > 20 | > 20 | > 20 |  |  |  |  |  |  |  |  | 
COC(=O)c1cc2c(cc1Nc1cc(F)c(OC)c(F)c1)OCO2 | 10.6 | > 20 | 8.53 | > 20 | > 20 |  |  |  |  |  |  |  |  | 
COc1cc(Nc2cc3c(cc2C(=O)NN)OCO3)cc(OC)c1OC | 1.19 | 1.97 | 0.53 | 1.4 | 1.36 |  |  |  |  |  |  |  |  | 
COc1c(F)cc(Nc2cc3c(cc2C(=O)NN)OCO3)cc1F | 5.88 | > 20 | 3.65 | > 20 | > 20 |  |  |  |  |  |  |  |  | 
COc1c(Br)cc(Nc2cc3c(cc2C(=O)NN)OCCO3)cc1Br | 0.24 | 0.44 | 0.23 | 1.14 | 0.47 |  |  |  |  |  |  |  |  | 
COC(=O)c1cc2c(cc1Nc1ccc(OC)cc1)OCCO2 | > 20 | > 20 | > 20 | > 20 | > 20 |  |  |  |  |  |  |  |  | 
COC(=O)c1cc2c(cc1NC(=O)c1cc(F)c(OC)c(F)c1)OCCO2 | > 20 | > 20 | > 20 | > 20 | > 20 |  |  |  |  |  |  |  |  | 

Reference: ChEMBL document CHEMBL5137013 (Eur J Med Chem, 2022)
